Results from patent US8791303B2, “Herbicides” (Syngenta Limited, priority 2009, dated 2014).

Tests used:
Avena fatua (AVEFA) [1] = experiment: Example A glasshouse herbicide test, pre-emergence, AVEFA; assay type: in vivo; conditions: Avena fatua, pre-emergence, 312 h, Rate 250 g/ha, sprayed after cultivation for one day, evaluated after 13 days, read-out: Pre-Emergence Activity AVEFA (100=total damage to plant; 0=no damage to plant)
Outline: (§1)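 Seeds sown in standard soil in pots were sprayed 1 day (pre-emergence) or 8 days (post-emergence) after sowing with compound formulated in acetone/water (50:50) containing 0.5% Tween 20. Plants were kept at 24/16° C. day/night, 14 hours light, 65% humidity, and damage was scored after 13 days (0–100).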

Avena fatua (AVEFA) [2] = experiment: Example A glasshouse herbicide test, post-emergence, AVEFA; assay type: in vivo; conditions: Avena fatua, post-emergence, 312 h, Rate 250 g/ha, sprayed after 8 days cultivation, evaluated after 13 days, read-out: Post-Emergence Activity AVEFA (100=total damage to plant; 0=no damage to plant)
Outline: as §1

Lolium perenne (LOLPE) [3] = experiment: Example A glasshouse herbicide test, pre-emergence, LOLPE; assay type: in vivo; conditions: Lolium perenne, pre-emergence, 312 h, Rate 250 g/ha, sprayed after cultivation for one day, evaluated after 13 days, read-out: Pre-Emergence Activity LOLPE (100=total damage to plant; 0=no damage to plant)
Outline: as §1

[4] = test system: Winter Wheat variety 'Hereward'; experiment: Example B crop damage test, post-emergence, wheat seed treated with safener cloquintocet mexyl; assay type: in vivo; conditions: Rate 250 g/ha; post-emergence spray 8 days after sowing; seed treated with cloquintocet mexyl 0.5 g/kg dry seed; evaluated after 13 days
Outline: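 Wheat seed pre-treated with cloquintocet mexyl at 0.5 g/kg seed, sown 8 days before post-emergence spraying of compound in acetone/water (50:50) with 0.5% Tween 20. Glasshouse at 24/16° C, 14 h light, 65% humidity. Damage scored visually after 13 days, 0 (none) to 100 (total).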

[5] = test system: Alopecurus myosuroides (ALOMY); experiment: Example A glasshouse herbicide test, post-emergence, ALOMY; assay type: in vivo; conditions: Alopecurus myosuroides, post-emergence, 312 h, Rate 250 g/ha, sprayed after 8 days cultivation, evaluated after 13 days, read-out: Post-Emergence Activity ALOMY (100=total damage to plant; 0=no damage to plant)
Outline: as §1

[6] = test system: Alopecurus myosuroides (ALOMY); experiment: Example A glasshouse herbicide test, pre-emergence, ALOMY; assay type: in vivo; conditions: Alopecurus myosuroides, pre-emergence, 312 h, Rate 250 g/ha, sprayed after cultivation for one day, evaluated after 13 days, read-out: Pre-Emergence Activity ALOMY (100=total damage to plant; 0=no damage to plant)
Outline: as §1

Lolium perenne (LOLPE) [7] = experiment: Example A glasshouse herbicide test, post-emergence, LOLPE; assay type: in vivo; conditions: Lolium perenne, post-emergence, 312 h, Rate 250 g/ha, sprayed after 8 days cultivation, evaluated after 13 days, read-out: Post-Emergence Activity LOLPE (100=total damage to plant; 0=no damage to plant)
Outline: as §1

[8] = test system: Winter Wheat variety 'Hereward'; experiment: Example B crop damage test, post-emergence, unsafened wheat; assay type: in vivo; conditions: Rate 250 g/ha; post-emergence spray after 8 days cultivation; no safener; evaluated after 13 days
Outline: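 Winter wheat 'Hereward' was sprayed post-emergence 8 days after sowing, using formulated active ingredient in acetone/water (50:50) with 0.5% Tween 20. Plants grew in a glasshouse at 24/16 °C day/night, 14 h light and 65% humidity. Damage was scored 13 days later (0 = none, 100 = total).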

[9] = test system: Echinochloa crus-galli (ECHCG); experiment: Example A glasshouse herbicide test, pre-emergence, ECHCG; assay type: in vivo; conditions: Echinochloa crus-galli, pre-emergence, 312 h, Rate 250 g/ha, sprayed after cultivation for one day, evaluated after 13 days, read-out: Pre-Emergence Activity ECHCG (100=total damage to plant; 0=no damage to plant)
Outline: as §1

[10] = test system: Echinochloa crus-galli (ECHCG); experiment: Example A glasshouse herbicide test, post-emergence, ECHCG; assay type: in vivo; conditions: Echinochloa crus-galli, post-emergence, 312 h, Rate 250 g/ha, sprayed after 8 days cultivation, evaluated after 13 days, read-out: Post-Emergence Activity ECHCG (100=total damage to plant; 0=no damage to plant)
Outline: as §1

| melting point [°C] | Compound | pest or weed control at 250 g/ha (Avena fatua (AVEFA) [1]) [%] | pest or weed control at 250 g/ha (Avena fatua (AVEFA) [2]) [%] | pest or weed control at 250 g/ha (Lolium perenne (LOLPE) [3]) [%] | Winter Wheat (Hereward) + cloquintocet mexyl damage (100=total damage to plant; 0=no damage to plant) [4] | pest or weed control at 250 g/ha [5] [%] | pest or weed control at 250 g/ha [6] [%] | pest or weed control at 250 g/ha (Lolium perenne (LOLPE) [7]) [%] | Winter Wheat (Hereward) damage (100=total damage to plant; 0=no damage to plant) [8] | pest or weed control at 250 g/ha [9] [%] | pest or weed control at 250 g/ha [10] [%] |
| --- | --- | --- | --- | --- | --- | --- | --- | --- | --- | --- | --- |
| 210 to 215.5 | Cc1cc(C)c(C2C(=O)CC(Cc3ccccc3C)C2=O)c(C)c1 (stereo not drawn) [Compound A15] | 70 | 50 | 100 | 20 | 80 | 70 | 90 | 30 | 60 | 40 |
| 181 to 184 | Cc1cc(C)cc(CC2CC(=O)C(c3c(C)cc(C)cc3C)C2=O)c1 (stereo not drawn) [Compound A21] | 20 | 20 | 100 | 20 | 40 | 60 | 30 | 20 | 90 | 60 |
| 235.3 to 238.6 | Cc1cc(C)c(C2C(=O)CC(Cc3ccc(S(C)(=O)=O)cc3)C2=O)c(C)c1 (stereo not drawn) [Compound A23] | 80 | 90 | 100 | 50 | 90 | 90 | 50 | 50 | 90 | 90 |
| 197.8 to 210.2 | Cc1cc(C)c(C2C(=O)CC(Cc3ccccc3F)C2=O)c(C)c1 (stereo not drawn) [Compound A14] | 40 | 30 | 100 | 20 | 80 | 70 | 90 | 30 | 90 | 80 |
| 160 to 165 | Cc1cc(C)c(C2C(=O)CC(Cc3ccccc3)C2=O)c(C)c1 (stereo not drawn) [Compound A17] | 30 | 40 | 90 | 10 | 80 | 50 | 80 | 10 | 70 | 60 |
| 192 to 194.8 | Cc1cc(C)c(C2C(=O)CC(Cc3cccc(Oc4ccccc4)c3)C2=O)c(C)c1 (stereo not drawn) [Compound A13] | 0 | 30 | 40 | – | 30 | 10 | 20 | – | 20 | 20 |
| 193 to 193.2 | Cc1cc(C)c(C2C(=O)CC(Cc3cc(F)cc(F)c3)C2=O)c(C)c1 (stereo not drawn) [Compound A20] | 20 | 30 | 100 | 0 | 20 | 30 | 50 | 10 | 80 | 50 |
| 249 to 251 | Cc1cc(C)c(C2C(=O)CC(Cc3ccc(C#N)cc3)C2=O)c(C)c1 (stereo not drawn) [Compound A19] | 40 | 60 | 90 | 10 | 90 | 80 | 90 | 60 | 100 | 90 |
| 225 to 232 | Cc1cc(C)c(C2C(=O)CC(Cc3ccc(-c4csnn4)cc3)C2=O)c(C)c1 (stereo not drawn) [Compound A16] | 30 | 50 | 70 | – | 20 | 10 | 30 | – | 80 | 50 |
| 197.3 to 197.6 | COc1ccc(CC2CC(=O)C(c3c(C)cc(C)cc3C)C2=O)cc1 (stereo not drawn) [Compound A24] | 80 | 90 | 100 | 10 | 80 | 90 | 80 | 40 | 80 | 30 |
| 173 to 179 | Cc1cccc(CC2CC(=O)C(c3c(C)cc(C)cc3C)C2=O)c1 (stereo not drawn) [Compound A18] | 50 | 50 | 100 | 10 | 80 | 80 | 90 | 20 | 100 | 50 |
